ChEMBL document CHEMBL1201862, “PubChem BioAssay data set” (2004)
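1) Cells in 96-well plates. 2) Compound, 48 h, 5 concentrations. 3) Linear interpolation between surrounding doses. 4) Unreached endpoint = highest concentration. At the GI50, growth is halved.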 Activity calls are given as the source filed them. Cut-off read from the data, not from the text of the source: active = GI50 up to about 1.1 µM and inactive = higher.

Tests used:
Assay in all cases: DTP human tumour cell line panel, 48 h
786-0 = system: 786-0
A549 = system: A549
ACHN = system: ACHN
BT-549 = system: BT-549
CAKI-1 = system: CAKI-1
CCRF-CEM = system: CCRF-CEM
COLO 205 = system: COLO 205
DU-145 = system: DU-145
EKVX = system: EKVX
HCC 2998 = system: HCC 2998
HCT-116 = system: HCT-116
HCT-15 = system: HCT-15
HL-60 = system: HL-60
HOP-62 = system: HOP-62
HOP-92 = system: HOP-92
HT-29 = system: HT-29
Hs-578T = system: Hs-578T
IGROV-1 = system: IGROV-1
K562 = system: K562
KM12 = system: KM12
LOX IMVI = system: LOX IMVI
M14 = system: M14
MCF7 = system: MCF7
MDA-MB-231 = system: MDA-MB-231
MDA-MB-435 = system: MDA-MB-435
MDA-N = system: MDA-N
MOLT-4 = system: MOLT-4
Malme-3M = system: Malme-3M
NCI-H226 = system: NCI-H226
NCI-H23 = system: NCI-H23
NCI-H460 = system: NCI-H460
NCI-H522 = system: NCI-H522
NCI/ADR-RES = system: NCI/ADR-RES
OVCAR-3 = system: OVCAR-3
OVCAR-4 = system: OVCAR-4
OVCAR-5 = system: OVCAR-5
OVCAR-8 = system: OVCAR-8
PC-3 = system: PC-3
RPMI-8226 = system: RPMI-8226
RXF 393 = system: RXF 393
SF-268 = system: SF-268
SF-295 = system: SF-295
SF-539 = system: SF-539
SK-MEL-28 = system: SK-MEL-28
SK-MEL-2 = system: SK-MEL-2
SK-MEL-5 = system: SK-MEL-5
SK-OV-3 = system: SK-OV-3
SN12C = system: SN12C
SNB-19 = system: SNB-19
SNB-75 = system: SNB-75
SR = system: SR
SW-620 = system: SW-620
T47D = system: T47D
TK-10 = system: TK-10
U-251 = system: U-251
UACC-257 = system: UACC-257
UACC-62 = system: UACC-62
UO-31 = system: UO-31

## N=C1/C(=C/c2ccc(F)cc2)C(=O)N=C2SC=NN12
786-0
  GI50: > 100 µM (inactive)
A549
  GI50: > 100 µM (inactive)
ACHN
  GI50: > 100 µM (inactive)
BT-549
  GI50: 94.6 µM (inactive)
CAKI-1
  GI50: > 100 µM (inactive)
CCRF-CEM
  GI50: > 100 µM (inactive)
COLO 205
  GI50: > 100 µM (inactive)
DU-145
  GI50: > 100 µM (inactive)
EKVX
  GI50: > 100 µM (inactive)
HCC 2998
  GI50: > 100 µM (inactive)
HCT-116
  GI50: > 100 µM (inactive)
HCT-15
  GI50: > 100 µM
HL-60
  GI50: 80.5 µM (inactive)
HOP-62
  GI50: > 100 µM (inactive)
HOP-92
  GI50: 69.2 µM (inactive)
HT-29
  GI50: > 100 µM (inactive)
Hs-578T
  GI50: > 100 µM (inactive)
IGROV-1
  GI50: > 100 µM (inactive)
K562
  GI50: > 100 µM (inactive)
KM12
  GI50: > 100 µM (inactive)
LOX IMVI
  GI50: 12.9 µM (inactive)
M14
  GI50: > 100 µM (inactive)
MCF7
  GI50: > 100 µM (inactive)
MDA-MB-231
  GI50: > 100 µM (inactive)
MDA-MB-435
  GI50: 83.4 µM (inactive)
MDA-N
  GI50: 83.2 µM (inactive)
MOLT-4
  GI50: > 100 µM (inactive)
Malme-3M
  GI50: > 100 µM (inactive)
NCI-H226
  GI50: > 100 µM (inactive)
NCI-H23
  GI50: > 100 µM (inactive)
NCI-H460
  GI50: > 100 µM (inactive)
NCI-H522
  GI50: > 100 µM (inactive)
NCI/ADR-RES
  GI50: > 100 µM (inactive)
OVCAR-3
  GI50: > 100 µM (inactive)
OVCAR-4
  GI50: > 100 µM (inactive)
OVCAR-5
  GI50: > 100 µM (inactive)
OVCAR-8
  GI50: > 100 µM (inactive)
PC-3
  GI50: > 100 µM (inactive)
RPMI-8226
  GI50: > 100 µM (inactive)
RXF 393
  GI50: 31.5 µM (inactive)
SF-268
  GI50: > 100 µM (inactive)
SF-295
  GI50: > 100 µM (inactive)
SF-539
  GI50: > 100 µM (inactive)
SK-MEL-28
  GI50: > 100 µM (inactive)
SK-MEL-2
  GI50: > 100 µM (inactive)
SK-MEL-5
  GI50: 62.5 µM (inactive)
SK-OV-3
  GI50: > 100 µM (inactive)
SN12C
  GI50: > 100 µM (inactive)
SNB-19
  GI50: > 100 µM (inactive)
SNB-75
  GI50: 92.3 µM (inactive)
SR
  GI50: 92.3 µM (inactive)
SW-620
  GI50: > 100 µM (inactive)
T47D
  GI50: > 100 µM (inactive)
TK-10
  GI50: > 100 µM (inactive)
U-251
  GI50: > 100 µM (inactive)
UACC-257
  GI50: > 100 µM (inactive)
UACC-62
  GI50: 87.9 µM (inactive)
UO-31
  GI50: > 100 µM (inactive)

## Cc1cc2c(cc1C)C(=O)C1(C2)Cc2c(C)ccc(C)c2C1=O (stereo not drawn)
786-0
  GI50: > 100 µM (inactive)
A549
  GI50: > 100 µM (inactive)
ACHN
  GI50: > 100 µM (inactive)
BT-549
  GI50: > 100 µM (inactive)
CAKI-1
  GI50: > 100 µM (inactive)
CCRF-CEM
  GI50: > 100 µM (inactive)
COLO 205
  GI50: > 100 µM (inactive)
DU-145
  GI50: > 100 µM (inactive)
EKVX
  GI50: > 100 µM (inactive)
HCC 2998
  GI50: > 100 µM (inactive)
HCT-116
  GI50: > 100 µM (inactive)
HCT-15
  GI50: > 100 µM
HL-60
  GI50: > 100 µM (inactive)
HOP-92
  GI50: > 100 µM (inactive)
Hs-578T
  GI50: 84.5 µM (inactive)
IGROV-1
  GI50: 98.4 µM (inactive)
K562
  GI50: > 100 µM (inactive)
KM12
  GI50: > 100 µM (inactive)
LOX IMVI
  GI50: > 100 µM (inactive)
M14
  GI50: > 100 µM (inactive)
MCF7
  GI50: > 100 µM (inactive)
MDA-MB-231
  GI50: > 100 µM (inactive)
MDA-MB-435
  GI50: > 100 µM (inactive)
MDA-N
  GI50: > 100 µM (inactive)
MOLT-4
  GI50: > 100 µM (inactive)
Malme-3M
  GI50: 84.9 µM (inactive)
NCI-H226
  GI50: > 100 µM (inactive)
NCI-H460
  GI50: > 100 µM (inactive)
NCI-H522
  GI50: > 100 µM (inactive)
NCI/ADR-RES
  GI50: > 100 µM (inactive)
OVCAR-3
  GI50: > 100 µM (inactive)
OVCAR-4
  GI50: > 100 µM (inactive)
OVCAR-5
  GI50: > 100 µM (inactive)
OVCAR-8
  GI50: > 100 µM (inactive)
PC-3
  GI50: > 100 µM (inactive)
RPMI-8226
  GI50: > 100 µM (inactive)
RXF 393
  GI50: 84.7 µM (inactive)
SF-268
  GI50: > 100 µM (inactive)
SF-295
  GI50: > 100 µM (inactive)
SF-539
  GI50: > 100 µM (inactive)
SK-MEL-28
  GI50: > 100 µM (inactive)
SK-MEL-2
  GI50: > 100 µM (inactive)
SK-MEL-5
  GI50: > 100 µM (inactive)
SN12C
  GI50: > 100 µM (inactive)
SNB-19
  GI50: > 100 µM (inactive)
SNB-75
  GI50: > 100 µM (inactive)
SR
  GI50: > 100 µM (inactive)
SW-620
  GI50: > 100 µM (inactive)
T47D
  GI50: 25.2 µM (inactive)
TK-10
  GI50: > 100 µM (inactive)
U-251
  GI50: > 100 µM (inactive)
UACC-257
  GI50: > 100 µM (inactive)
UACC-62
  GI50: > 100 µM (inactive)
UO-31
  GI50: > 100 µM (inactive)

## Cc1nn(C(=O)c2ccccc2O)c2c1C(c1ccccc1O)SC(=N)N2 (stereo not drawn)
786-0
  GI50: 4.53 µM (inactive)
A549
  GI50: 8.04 µM (inactive)
ACHN
  GI50: 3.44 µM (inactive)
BT-549
  GI50: > 10 µM (inactive)
CAKI-1
  GI50: 8.07 µM (inactive)
CCRF-CEM
  GI50: 3.1 µM (inactive)
COLO 205
  GI50: > 10 µM (inactive)
DU-145
  GI50: 8.85 µM (inactive)
EKVX
  GI50: 9.27 µM (inactive)
HCC 2998
  GI50: > 10 µM (inactive)
HCT-116
  GI50: 4.12 µM (inactive)
HCT-15
  GI50: 4.42 µM
HL-60
  GI50: 2.22 µM (inactive)
HOP-62
  GI50: 0.869 µM (active)
HOP-92
  GI50: > 10 µM (inactive)
HT-29
  GI50: > 10 µM (inactive)
Hs-578T
  GI50: > 10 µM (inactive)
IGROV-1
  GI50: 1.01 µM (active)
K562
  GI50: 3.24 µM (inactive)
KM12
  GI50: 4.65 µM (inactive)
LOX IMVI
  GI50: 6.1 µM (inactive)
M14
  GI50: 4.54 µM (inactive)
MCF7
  GI50: 2.75 µM (inactive)
MDA-MB-231
  GI50: 0.649 µM (active)
MDA-MB-435
  GI50: 3.08 µM (inactive)
MDA-N
  GI50: > 10 µM (inactive)
MOLT-4
  GI50: 2.67 µM (inactive)
Malme-3M
  GI50: > 10 µM (inactive)
NCI-H226
  GI50: 1.49 µM (inactive)
NCI-H23
  GI50: 2.94 µM (inactive)
NCI-H460
  GI50: 4.36 µM (inactive)
NCI-H522
  GI50: 3.47 µM (inactive)
NCI/ADR-RES
  GI50: 4.09 µM (inactive)
OVCAR-3
  GI50: 2.54 µM (inactive)
OVCAR-4
  GI50: 2.53 µM (inactive)
OVCAR-5
  GI50: 6.32 µM (inactive)
OVCAR-8
  GI50: 2.82 µM (inactive)
PC-3
  GI50: 7.71 µM (inactive)
RPMI-8226
  GI50: 3.34 µM (inactive)
RXF 393
  GI50: > 10 µM (inactive)
SF-268
  GI50: 6.81 µM (inactive)
SF-295
  GI50: 7.53 µM (inactive)
SF-539
  GI50: 0.421 µM (active)
SK-MEL-28
  GI50: > 10 µM (inactive)
SK-MEL-2
  GI50: 4.65 µM (inactive)
SK-MEL-5
  GI50: 2.46 µM (inactive)
SK-OV-3
  GI50: 5.02 µM (inactive)
SN12C
  GI50: 4.82 µM (inactive)
SNB-75
  GI50: 4.06 µM (inactive)
SR
  GI50: 1.95 µM (inactive)
SW-620
  GI50: 6.11 µM (inactive)
T47D
  GI50: 5.78 µM (inactive)
TK-10
  GI50: 1.69 µM (inactive)
U-251
  GI50: 4.39 µM (inactive)
UACC-257
  GI50: 1.5 µM (inactive)
UACC-62
  GI50: 3.08 µM (inactive)
